Reference: patent publication EP4722207A1, “OXOISOINDOLINYL-SUBSTITUTED TETRAHYDROPYRIMIDINEDIONE DERIVATIVE AND USE THEREOF” (Gluetacs Therapeutics (Shanghai) Co., Ltd., priority 2023, dated 2024)

Legend:
Format in all cases: cell-based
CK1α = target: T1, CK1α (Homo sapiens, UniProt P48729+Q96SW2); test: Western-blot assay, substrate protein degradation in hPBMCs: CK1α; conditions: for CK1α substrate protein remaining %: compounds at 50 nM and 500 nM, 24 hours; for substrate protein remaining % CK1α: 24 hours of compound treatment, 50 nM and 500 nM
T1 construct: effects of the compounds of the present disclosure on the expression of target proteins in cells; endogenous in cells; host or cells: human PBMCs (hPBMCs)

IKZF2 = target: T2, IKZF2 (Homo sapiens, UniProt Q96SW2+Q9UKS7); test: Western-blot assay, substrate protein degradation in hPBMCs: IKZF2; conditions: for IKZF2 substrate protein remaining %: compounds at 50 nM and 500 nM, 24 hours; for substrate protein remaining % IKZF2: 24 hours of compound treatment, 50 nM and 500 nM
T2 construct: effects of the compounds of the present disclosure on the expression of target proteins in cells; endogenous in cells; host or cells: human PBMCs (hPBMCs)
T2 sequence (Q9UKS7 whole entry): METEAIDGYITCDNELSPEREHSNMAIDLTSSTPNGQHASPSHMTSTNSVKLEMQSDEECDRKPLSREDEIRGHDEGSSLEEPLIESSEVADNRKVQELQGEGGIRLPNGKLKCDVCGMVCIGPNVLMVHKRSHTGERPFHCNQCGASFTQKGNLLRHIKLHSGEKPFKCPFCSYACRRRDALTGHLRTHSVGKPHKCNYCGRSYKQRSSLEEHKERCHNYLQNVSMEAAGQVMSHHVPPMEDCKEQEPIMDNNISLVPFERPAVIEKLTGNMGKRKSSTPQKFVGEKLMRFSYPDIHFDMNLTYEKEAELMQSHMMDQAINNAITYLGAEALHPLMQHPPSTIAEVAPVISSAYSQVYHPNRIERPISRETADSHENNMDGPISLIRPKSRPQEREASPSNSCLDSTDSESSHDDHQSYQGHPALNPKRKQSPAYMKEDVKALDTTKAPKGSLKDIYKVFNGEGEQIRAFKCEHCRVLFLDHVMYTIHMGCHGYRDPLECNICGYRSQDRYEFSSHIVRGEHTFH
T2 sequence (Q96SW2 whole entry): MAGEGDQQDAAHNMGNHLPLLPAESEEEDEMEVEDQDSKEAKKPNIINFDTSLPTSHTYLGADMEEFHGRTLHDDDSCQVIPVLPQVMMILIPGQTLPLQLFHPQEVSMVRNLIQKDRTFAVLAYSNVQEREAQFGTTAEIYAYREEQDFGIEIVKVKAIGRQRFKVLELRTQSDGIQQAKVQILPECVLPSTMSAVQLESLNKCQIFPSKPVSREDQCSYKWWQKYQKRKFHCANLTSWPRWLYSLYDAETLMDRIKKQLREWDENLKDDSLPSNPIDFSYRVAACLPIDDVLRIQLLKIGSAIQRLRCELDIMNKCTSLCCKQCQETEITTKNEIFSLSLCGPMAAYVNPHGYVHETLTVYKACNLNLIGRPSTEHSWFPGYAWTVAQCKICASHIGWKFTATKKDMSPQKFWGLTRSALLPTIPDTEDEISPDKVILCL
T2 sequence (Q16531 whole entry partner): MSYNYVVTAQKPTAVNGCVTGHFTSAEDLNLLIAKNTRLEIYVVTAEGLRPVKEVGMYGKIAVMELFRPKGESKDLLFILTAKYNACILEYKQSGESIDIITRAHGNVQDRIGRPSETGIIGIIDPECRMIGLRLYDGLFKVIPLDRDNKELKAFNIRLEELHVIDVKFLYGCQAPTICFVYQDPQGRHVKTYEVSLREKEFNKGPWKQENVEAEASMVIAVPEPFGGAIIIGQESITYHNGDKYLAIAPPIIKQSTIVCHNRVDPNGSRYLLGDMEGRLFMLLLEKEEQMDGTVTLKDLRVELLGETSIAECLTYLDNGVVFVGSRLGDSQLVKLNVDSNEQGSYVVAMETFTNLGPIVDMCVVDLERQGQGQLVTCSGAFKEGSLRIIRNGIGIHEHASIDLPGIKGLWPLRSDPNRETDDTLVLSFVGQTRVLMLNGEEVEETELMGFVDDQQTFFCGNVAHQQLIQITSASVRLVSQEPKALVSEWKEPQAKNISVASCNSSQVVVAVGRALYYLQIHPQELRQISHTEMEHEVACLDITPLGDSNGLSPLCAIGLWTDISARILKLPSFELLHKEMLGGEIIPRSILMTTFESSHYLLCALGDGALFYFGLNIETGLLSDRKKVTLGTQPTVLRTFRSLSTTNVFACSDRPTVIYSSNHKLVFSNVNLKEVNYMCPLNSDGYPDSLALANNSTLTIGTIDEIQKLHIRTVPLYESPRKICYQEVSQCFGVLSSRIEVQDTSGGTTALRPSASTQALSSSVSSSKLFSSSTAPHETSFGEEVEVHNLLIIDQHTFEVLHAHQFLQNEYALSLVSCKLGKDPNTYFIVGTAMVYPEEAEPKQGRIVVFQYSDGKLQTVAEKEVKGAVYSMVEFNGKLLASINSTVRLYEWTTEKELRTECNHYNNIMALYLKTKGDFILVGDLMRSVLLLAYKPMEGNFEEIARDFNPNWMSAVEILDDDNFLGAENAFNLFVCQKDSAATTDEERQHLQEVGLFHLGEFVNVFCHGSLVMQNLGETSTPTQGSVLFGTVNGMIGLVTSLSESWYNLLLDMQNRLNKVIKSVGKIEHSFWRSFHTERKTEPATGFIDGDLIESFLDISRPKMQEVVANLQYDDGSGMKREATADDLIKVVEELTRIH

GSPT1 = target: T3, GSPT1 (Homo sapiens, UniProt P15170+Q96SW2); test: Western-blot assay, substrate protein degradation in hPBMCs: GSPT1; conditions: for GSPT1 substrate protein remaining %: compounds at 50 nM and 500 nM, 24 hours; for substrate protein remaining % GSPT1: 24 hours of compound treatment, 50 nM and 500 nM
T3 construct: effects of the compounds of the present disclosure on the expression of target proteins in cells; endogenous in cells; host or cells: human PBMCs (hPBMCs)
T3 sequence (P15170 whole entry): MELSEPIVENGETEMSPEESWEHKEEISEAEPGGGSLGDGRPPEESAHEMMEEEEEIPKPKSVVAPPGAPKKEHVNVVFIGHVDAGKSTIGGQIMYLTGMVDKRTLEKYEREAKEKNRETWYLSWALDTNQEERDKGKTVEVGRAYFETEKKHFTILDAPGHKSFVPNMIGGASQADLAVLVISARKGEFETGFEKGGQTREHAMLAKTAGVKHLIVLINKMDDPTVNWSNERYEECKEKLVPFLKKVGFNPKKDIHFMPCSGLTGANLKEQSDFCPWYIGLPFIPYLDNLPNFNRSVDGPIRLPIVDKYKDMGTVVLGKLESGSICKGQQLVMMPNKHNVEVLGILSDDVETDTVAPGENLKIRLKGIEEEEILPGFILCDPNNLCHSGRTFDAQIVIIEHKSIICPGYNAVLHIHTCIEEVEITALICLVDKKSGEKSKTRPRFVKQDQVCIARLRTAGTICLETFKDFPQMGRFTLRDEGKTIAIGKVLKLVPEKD
T3 sequence (Q96SW2 whole entry): as the sequence (Q96SW2 whole entry) above
T3 sequence (Q16531 whole entry partner): as the sequence (Q16531 whole entry partner) above

WEE1 = target: T4, WEE1 (Homo sapiens, UniProt P30291+Q96SW2); test: Western-blot assay, substrate protein degradation in hPBMCs: WEE1; conditions: for WEE1 substrate protein remaining %: compounds at 50 nM and 500 nM, 24 hours; for substrate protein remaining % WEE1: 24 hours of compound treatment, 50 nM and 500 nM
T4 construct: effects of the compounds of the present disclosure on the expression of target proteins in cells; endogenous in cells; host or cells: human PBMCs (hPBMCs)
T4 sequence (P30291 whole entry): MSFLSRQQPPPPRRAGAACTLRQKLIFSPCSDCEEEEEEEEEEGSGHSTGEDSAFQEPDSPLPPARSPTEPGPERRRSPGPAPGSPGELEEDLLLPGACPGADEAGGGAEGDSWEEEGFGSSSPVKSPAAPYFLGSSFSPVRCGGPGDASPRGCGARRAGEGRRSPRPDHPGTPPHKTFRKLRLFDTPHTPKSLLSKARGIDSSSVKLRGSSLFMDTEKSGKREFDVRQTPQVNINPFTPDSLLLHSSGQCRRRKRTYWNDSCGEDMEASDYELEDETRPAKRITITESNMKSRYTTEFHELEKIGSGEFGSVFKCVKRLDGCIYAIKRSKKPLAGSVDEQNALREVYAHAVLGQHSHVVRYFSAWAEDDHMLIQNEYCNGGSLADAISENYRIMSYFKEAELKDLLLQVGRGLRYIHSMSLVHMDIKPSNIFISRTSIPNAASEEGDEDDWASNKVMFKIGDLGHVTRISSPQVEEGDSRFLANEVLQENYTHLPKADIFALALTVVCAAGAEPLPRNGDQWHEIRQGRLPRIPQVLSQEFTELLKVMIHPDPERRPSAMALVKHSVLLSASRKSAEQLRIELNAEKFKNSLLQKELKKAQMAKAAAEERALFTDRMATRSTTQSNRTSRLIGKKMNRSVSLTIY
T4 sequence (Q96SW2 whole entry): as the sequence (Q96SW2 whole entry) above
T4 sequence (Q16531 whole entry partner): as the sequence (Q16531 whole entry partner) above

IKZF3 = target: T5, IKZF3 (Homo sapiens, UniProt Q96SW2+Q9UKT9); test: Western-blot assay, substrate protein degradation in hPBMCs: IKZF3; conditions: for IKZF3 substrate protein remaining %: compounds at 50 nM and 500 nM, 24 hours; for substrate protein remaining % IKZF3: 24 hours of compound treatment, 50 nM and 500 nM
T5 construct: effects of the compounds of the present disclosure on the expression of target proteins in cells; endogenous in cells; host or cells: human PBMCs (hPBMCs)
T5 sequence (Q9UKT9 whole entry): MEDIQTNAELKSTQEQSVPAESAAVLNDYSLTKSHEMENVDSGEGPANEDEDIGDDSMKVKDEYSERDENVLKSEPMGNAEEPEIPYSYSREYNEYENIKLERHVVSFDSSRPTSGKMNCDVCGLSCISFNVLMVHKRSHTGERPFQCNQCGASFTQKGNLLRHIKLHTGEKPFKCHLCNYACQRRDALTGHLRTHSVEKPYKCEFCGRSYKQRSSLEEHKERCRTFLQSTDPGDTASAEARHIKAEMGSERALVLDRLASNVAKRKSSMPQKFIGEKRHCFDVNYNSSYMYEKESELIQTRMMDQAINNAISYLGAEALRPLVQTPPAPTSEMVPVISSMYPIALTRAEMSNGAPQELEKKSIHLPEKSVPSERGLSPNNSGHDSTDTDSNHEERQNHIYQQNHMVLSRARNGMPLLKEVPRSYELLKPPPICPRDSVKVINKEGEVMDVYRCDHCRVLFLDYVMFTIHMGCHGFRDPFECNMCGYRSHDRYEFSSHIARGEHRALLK
T5 sequence (Q96SW2 whole entry): as the sequence (Q96SW2 whole entry) above
T5 sequence (Q16531 whole entry partner): as the sequence (Q16531 whole entry partner) above

IKZF1 = target: T6, IKZF1 (Homo sapiens, UniProt Q13422+Q96SW2); test: Western-blot assay, substrate protein degradation in hPBMCs: IKZF1; conditions: for IKZF1 substrate protein remaining %: compounds at 50 nM and 500 nM, 24 hours; for substrate protein remaining % IKZF1: 24 hours of compound treatment, 50 nM and 500 nM
T6 construct: effects of the compounds of the present disclosure on the expression of target proteins in cells; endogenous in cells; host or cells: human PBMCs (hPBMCs)
T6 sequence (Q13422 whole entry): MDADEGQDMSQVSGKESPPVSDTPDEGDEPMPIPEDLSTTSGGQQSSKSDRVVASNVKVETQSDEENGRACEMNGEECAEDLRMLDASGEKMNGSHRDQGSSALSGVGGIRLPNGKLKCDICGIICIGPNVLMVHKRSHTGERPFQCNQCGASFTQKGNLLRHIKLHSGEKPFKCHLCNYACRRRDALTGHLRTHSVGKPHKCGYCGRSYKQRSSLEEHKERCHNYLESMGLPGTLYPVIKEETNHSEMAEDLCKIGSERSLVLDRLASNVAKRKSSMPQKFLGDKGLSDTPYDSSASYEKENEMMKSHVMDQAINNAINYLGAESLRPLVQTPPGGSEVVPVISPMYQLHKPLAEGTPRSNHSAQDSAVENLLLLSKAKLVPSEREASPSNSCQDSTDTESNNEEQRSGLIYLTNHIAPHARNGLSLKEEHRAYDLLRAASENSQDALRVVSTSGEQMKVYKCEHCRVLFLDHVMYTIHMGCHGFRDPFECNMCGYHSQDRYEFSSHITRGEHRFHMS
T6 sequence (Q96SW2 whole entry): as the sequence (Q96SW2 whole entry) above
T6 sequence (Q16531 whole entry partner): as the sequence (Q16531 whole entry partner) above

| Structure (SMILES) | CK1α substrate protein remaining % (CK1α) | IKZF2 substrate protein remaining % (IKZF2) | GSPT1 substrate protein remaining % (GSPT1) | WEE1 substrate protein remaining % (WEE1) | IKZF3 substrate protein remaining % (IKZF3) | IKZF1 substrate protein remaining % (IKZF1) | substrate protein remaining % CK1α (CK1α) | substrate protein remaining % IKZF2 (IKZF2) | substrate protein remaining % GSPT1 (GSPT1) | substrate protein remaining % WEE1 (WEE1) | substrate protein remaining % IKZF3 (IKZF3) | substrate protein remaining % IKZF1 (IKZF1) |
| --- | --- | --- | --- | --- | --- | --- | --- | --- | --- | --- | --- | --- |
| Cc1cc(N2CCN(Cc3ccc4c(c3)CN(N3CCC(=O)NC3=O)C4=O)CC2)cs1 [GT-05087, 1-(5-((4-(5-methylthiophen-3-yl)piperazin-1-yl)methyl)-1-oxoisoindolin-2-yl)dihydropyrimidine-2,4(1H,3H)-dione] | B ("B" is defined as 80%< substrate protein remaining %≤ 100%) | B ("B" is defined as 80%< substrate protein remaining %≤ 100%) | A ("A" is defined as 0% ≤ substrate protein remaining % ≤ 80%) | B ("B" is defined as 80%< substrate protein remaining %≤ 100%) | B ("B" is defined as 80%< substrate protein remaining %≤ 100%) | B ("B" is defined as 80%< substrate protein remaining %≤ 100%) |  |  |  |  |  |  |
| O=C1CCN(N2C(=O)c3ccc(CN4CCN(c5cccc(F)c5F)CC4)cc3C2=O)C(=O)N1 [GT-06793, 5-((4-(2,3-difluorophenyl)piperazin-1-yl)methyl)-2-(2,4-dioxotetrahydropyrimidin-1(2H)-yl)isoindoline-1,3-dione] | B ("B" is defined as 80%< substrate protein remaining %≤ 100%) | A ("A" is defined as 0% ≤ substrate protein remaining % ≤ 80%) | B ("B" is defined as 80%< substrate protein remaining %≤ 100%) | B ("B" is defined as 80%< substrate protein remaining %≤ 100%) | B ("B" is defined as 80%< substrate protein remaining %≤ 100%) | B ("B" is defined as 80%< substrate protein remaining %≤ 100%) |  |  |  |  |  |  |
| CC1(C)CCC(CN2C3CC2CN(Cc2ccc4c(c2)CN(N2CCC(=O)NC2=O)C4=O)C3)=C(c2ccc(Cl)cc2)C1 [GT-06458, 1-(5-((6-((4'-chloro-5,5-dimethyl-3,4,5,6-tetrahydro-[1,1'-biphenyl]-2-yl)methyl)-3,6-diazabicyclo[3.1.1]heptan-3-yl)methyl)-1-oxoisoindolin-2-yl)dihydropyrimidine-2,4(1H,3H)-dione] | A ("A" is defined as 0% ≤ substrate protein remaining % ≤ 80%) | A ("A" is defined as 0% ≤ substrate protein remaining % ≤ 80%) | A ("A" is defined as 0% ≤ substrate protein remaining % ≤ 80%) | A ("A" is defined as 0% ≤ substrate protein remaining % ≤ 80%) | A ("A" is defined as 0% ≤ substrate protein remaining % ≤ 80%) | A ("A" is defined as 0% ≤ substrate protein remaining % ≤ 80%) |  |  |  |  |  |  |
| O=C1CCN(N2C(=O)c3ccc(CN4CCC(c5ccon5)CC4)cc3C2=O)C(=O)N1 [GT-07523, 2-(2,4-dioxotetrahydropyrimidin-1(2H)-yl)-5-((4-(isoxazol-3-yl)piperidin-1-yl)methyl)isoindoline-1,3-dione] |  |  |  |  |  |  | A (0% ≤ substrate protein remaining % ≤ 80%) | A (0% ≤ substrate protein remaining % ≤ 80%) | A (0% ≤ substrate protein remaining % ≤ 80%) | A (0% ≤ substrate protein remaining % ≤ 80%) | B (80%< substrate protein remaining %≤ 100%) | A (0% ≤ substrate protein remaining % ≤ 80%) |
| Cc1nc(C2CCN(Cc3ccc4c(c3)C(=O)N(N3CCC(=O)NC3=O)C4=O)CC2)c2ccsc2n1 [GT-05272, 2-(2,4-dioxotetrahydropyrimidin-1(2H)-yl)-5-((4-(2-methylthieno[2,3-d]pyrimidin-4-yl)piperidin-1-yl)methyl)isoindoline-1,3-dione] | B ("B" is defined as 80%< substrate protein remaining %≤ 100%) | A ("A" is defined as 0% ≤ substrate protein remaining % ≤ 80%) | B ("B" is defined as 80%< substrate protein remaining %≤ 100%) | B ("B" is defined as 80%< substrate protein remaining %≤ 100%) | B ("B" is defined as 80%< substrate protein remaining %≤ 100%) | B ("B" is defined as 80%< substrate protein remaining %≤ 100%) |  |  |  |  |  |  |
| O=C1CCN(N2C(=O)c3ccc(CN4CCn5c(nnc5C(F)(F)F)C4)cc3C2=O)C(=O)N1 [GT-05253, 2-(2,4-dioxotetrahydropyrimidin-1(2H)-yl)-5-((3-(trifluoromethyl)-5,6-dihydro-[1,2,4]triazolo[4,3-a]pyrazin-7(8H)-yl)methyl)isoindoline-1,3-dione] | B ("B" is defined as 80%< substrate protein remaining %≤ 100%) | B ("B" is defined as 80%< substrate protein remaining %≤ 100%) | A ("A" is defined as 0% ≤ substrate protein remaining % ≤ 80%) | B ("B" is defined as 80%< substrate protein remaining %≤ 100%) | B ("B" is defined as 80%< substrate protein remaining %≤ 100%) | B ("B" is defined as 80%< substrate protein remaining %≤ 100%) |  |  |  |  |  |  |
| O=C1CCN(N2C(=O)c3ccc(CN4CC=C(c5ncccc5F)CC4)cc3C2=O)C(=O)N1 [GT-07492, 2-(2,4-dioxotetrahydropyrimidin-1(2H)-yl)-5-((3-fluoro-3',6'-dihydro-[2,4'-bipyridin]-1'(2'H)-yl)methyl)isoindoline-1,3-dione] |  |  |  |  |  |  | A (0% ≤ substrate protein remaining % ≤ 80%) | B (80%< substrate protein remaining %≤ 100%) | B (80%< substrate protein remaining %≤ 100%) | B (80%< substrate protein remaining %≤ 100%) | B (80%< substrate protein remaining %≤ 100%) | B (80%< substrate protein remaining %≤ 100%) |
| O=C1CCN(N2C(=O)c3ccc(CN4C5CCC4CN(c4cccc(Cl)c4Cl)C5)cc3C2=O)C(=O)N1 [GT-07438, 5-((3-(2,3-dichlorophenyl)-3,8-diazabicyclo[3.2.1]octan-8-yl)methyl)-2-(2,4-dioxotetrahydropyrimidin-1(2H)-yl)isoindoline-1,3-dione] |  |  |  |  |  |  | A (0% ≤ substrate protein remaining % ≤ 80%) | B (80%< substrate protein remaining %≤ 100%) | A (0% ≤ substrate protein remaining % ≤ 80%) | A (0% ≤ substrate protein remaining % ≤ 80%) | B (80%< substrate protein remaining %≤ 100%) | B (80%< substrate protein remaining %≤ 100%) |
| O=C1CCN(N2C(=O)c3ccc(CN4CC=C(c5cncc(Cl)c5)CC4)cc3C2=O)C(=O)N1 [GT-07491, 5-((5-chloro-3',6'-dihydro-[3,4'-bipyridin]-1'(2'H)-yl)methyl)-2-(2,4-dioxotetrahydropyrimidin-1(2H)-yl)isoindoline-1,3-dione] |  |  |  |  |  |  | B (80%< substrate protein remaining %≤ 100%) | B (80%< substrate protein remaining %≤ 100%) | A (0% ≤ substrate protein remaining % ≤ 80%) | A (0% ≤ substrate protein remaining % ≤ 80%) | B (80%< substrate protein remaining %≤ 100%) | B (80%< substrate protein remaining %≤ 100%) |
| O=C1CCN(N2Cc3cc(CN4CCC(c5ccco5)CC4)ccc3C2=O)C(=O)N1 [GT-07374, 1-(5-((4-(furan-2-yl)piperidin-1-yl)methyl)-1-oxoisoindolin-2-yl)dihydropyrimidine-2,4(1H,3H)-dione] |  |  |  |  |  |  | A (0% ≤ substrate protein remaining % ≤ 80%) | B (80%< substrate protein remaining %≤ 100%) | A (0% ≤ substrate protein remaining % ≤ 80%) | B (80%< substrate protein remaining %≤ 100%) | B (80%< substrate protein remaining %≤ 100%) | B (80%< substrate protein remaining %≤ 100%) |
| Cc1ccsc1N1CCN(Cc2ccc3c(c2)CN(N2CCC(=O)NC2=O)C3=O)CC1 [GT-05084, 1-(5-((4-(3-methylthiophen-2-yl)piperazin-1-yl)methyl)-1-oxoisoindolin-2-yl)dihydropyrimidine-2,4(1H,3H)-dione] | B ("B" is defined as 80%< substrate protein remaining %≤ 100%) | A ("A" is defined as 0% ≤ substrate protein remaining % ≤ 80%) | B ("B" is defined as 80%< substrate protein remaining %≤ 100%) | B ("B" is defined as 80%< substrate protein remaining %≤ 100%) | B ("B" is defined as 80%< substrate protein remaining %≤ 100%) | B ("B" is defined as 80%< substrate protein remaining %≤ 100%) |  |  |  |  |  |  |
